Assay [1] deals with testosterone levels. Description: peripheral selectivity / counter regulation: testosterone levels in rats after administration of the compound. The assay is classed as in vivo. Conditions: for Counter Regulation: testosterone levels 24 hours after 10 mg s.c., lack of counter regulation = peripheral selectivity. Here is the method:
In order to test peripheral selectively, the testosterone levels are measured in rats 24 hours after administration of 10 mg s.c. of the compound: lack of counter regulation is evaluated as peripheral selectively.

The test system of assay [2] is orchiectomized, testosterone propionate-substituted rats. In words: classical antiandrogen test on orchiectomized, testosterone propionate-substituted rats (inhibition of prostate weight). As to conditions: 3 mg s.c.; for Antiandrogen Test: % Inhibition of Prostate Weight: orchiectomized, testosterone propionate-substituted rats (0.1 mg/animal/day), seven day treatment. It is filed as in vivo. Here is the method:
These two compounds, the classical antiandrogen test on orchiectomized, testosterone propionate-substituted rats (dose: 0.1 mg/animal/day) show, after a seven day treatment (s.c.) with 3 mg/animal/day) of the antiandrogen, merely about 30% of the antiandrogenic potency of cyproterone acetate (17α-acetoxy-6-chlor-1α,2α-methylene-4,6-pregnadiene-3,20-dione) which constitutes the standard antiandrogen (Friedmund Neumann, Rudolf Wiechert, "Die Geschichte von Cyproteronacetat, Ungewoehnliche Wege bei der Entwicklung eines Arzneimittels" [The History of Cyproterone Acetate, the Development of a Medicine Along Unusual Routes], MPS Medizinisch-Pharmazeutische Studiengesellschaft e.V. [Association for Medical-Pharmaceutical Studies] Mainz, Mainz (1984).

For assay [3], the system named is testosterone levels. As to conditions: in words, background statement; cited from earlier work.
Assay [4] deals with orchiectomized, testosterone propionate-substituted rats. Conditions: compound described in EP 0 207 375 A1; cited from earlier work.

The structures appear in SMILES notation. Several values for one entry are separate records, joined by “and”; a condition that tells them apart may be missing. Identical values can stand only once.

For `CC12Cc3cn(S(C)(=O)=O)nc3C=C1CCC1C2CCC2(C)C1C=CC2(C)O` (stereo not drawn) [A, 1'-mesyl-17α-methyl-1'H-androsta-4,15-dieno[3,2-c]pyrazol-17β-ol], in assay [1], the “Counter Regulation” value is recorded as “No”. Moreover, the “Antiandrogen Test: % Inhibition of Prostate Weight” value in assay [2] worked out at 80%.
As to `CC12Cc3cn(S(C)(=O)=O)nc3C=C1C1(CC1)CC1C2CCC2(C)C1CCC2(C)O` (stereo not drawn) [B, 6,6-ethylene-1'-mesyl-17α-methyl-1'H-androst-4-eno[3,2-c]pyrazol-17β-ol], the “Counter Regulation” value in assay [1] is “No”. Besides, the “Antiandrogen Test: % Inhibition of Prostate Weight” value in assay [2] is 73%.
In the case of `CC1CC2=Cc3nn(S(C)(=O)=O)cc3CC2(C)C2CCC3(C)C(CCC3(C)O)C12` (stereo not drawn) [C, 7α,17α-dimethyl-1'-mesyl-1'H-androst-4-eno[3,2-c]pyrazol-17β-ol], in assay [1], the “Counter Regulation” value is recorded as “No”. Also, in assay [2], the “Antiandrogen Test: % Inhibition of Prostate Weight” value came out at 53%.
`CC(=O)O[C@]1(C(C)=O)CC[C@H]2[C@@H]3C=C(Cl)C4=CC(=O)[C@@H]5C[C@@H]5[C@]4(C)[C@H]3CC[C@@]21C` [Cyproterone Acetate, 17α-acetoxy-6-chlor-1α,2α-methylene-4,6-pregnadiene-3,20-dione]: the “effect on the hypothalamus-hypophysis system” value in assay [3] is recorded as “affecting, as does the latter compound, the hypothalamus-hypophysis system”. Further, the “Antiandrogen Test: % Inhibition of Prostate Weight, comparison Cyproterone Acetate (value in parentheses)” value in assay [2] (cyproterone acetate comparison value) was 97% and 86% and 87% and 95% and 100%.
Regarding `CC12Cc3nn(S(C)(=O)=O)nc3C=C1CCC1C2CCC2(C)C1C=CC2(C)O` (stereo not drawn) [D, 2'-mesyl-17α-methyl-2'H-triazolo[4',5':2,3]androsta-4,15-dien-17β-ol], in assay [1], the “Counter Regulation” value is recorded as “No”. Further, the “Antiandrogen Test: % Inhibition of Prostate Weight” value in assay [2] is listed as 97%.
`CC1=C2CCC3C(CCC4(C)C3CCC4(C)O)C2(C)Cc2cn(S(C)(=O)=O)nc21` (stereo not drawn) [E, 4,17α-dimethyl-1'-mesyl-1'H-androst-4-eno[3,2-c]pyrazol-17β-ol]: the “testosterone level in the serum” value in assay [1] (central effect (counter regulation by feedback)) is “raises the testosterone level in the serum”. The peripheral selectivity result in assay [1] (lack of counter regulation is evaluated as peripheral selectivity) was “no peripheral selectivity”. For the same compound, the “Counter Regulation” value in assay [1] is “Yes”. Also, the “antiandrogen activity compared with cyproterone acetate” value in assay [4] was “comparable to cyproterone acetate”. The “Antiandrogen Test: % Inhibition of Prostate Weight” value in assay [2] came to 88%.

The values above are taken from patent US5236912A, “Antiandrogenic [3,2-c]pyrazole and [3,2-d]triazole steroids” (Schering Aktiengesellschaft, priority 1990, dated 1993).
